Tests used:
Bcr/Abl fusion protein [1] = target: Bcr/Abl fusion protein (Homo sapiens, UniProt P00519, T315I); assay: Inhibition of Bcr-Abl T315I mutant (unknown origin) by ADP-Glo assay; format: protein assay
K562 = assay: Cytotoxicity against human K562 cells expressing Bcr-Abl assessed as growth inhibition after 48 hrs by MTT assay; conditions: K562, 48 h
Bcr/Abl fusion protein [2] = target: Bcr/Abl fusion protein (Homo sapiens, UniProt P00519); assay: Inhibition of wild type Bcr-Abl (unknown origin) by ADP-Glo assay; format: protein assay

Row | SMILES | IC50 (Bcr/Abl fusion protein [1]) [µM] | IC50 (K562) [µM] | IC50 (Bcr/Abl fusion protein [2]) [µM]
1 | COc1cc(OC)cc(C(=O)N2CCN(C(=O)c3ccc(-c4cccc5[nH]nc(N)c45)cc3)CC2)c1 | > 100 | 105 | –
2 | Nc1n[nH]c2cccc(-c3ccc(C(=O)N4CCN(C(=O)c5ccc(Cl)cc5Cl)CC4)cc3)c12 | 0.45 | 6.5 | 0.014
3 | Nc1n[nH]c2cccc(-c3ccc(C(=O)N4CCN(C(=O)c5cccc(F)c5)CC4)cc3)c12 | 2.07 | 30.2 | 0.086
4 | COc1cccc(C(=O)N2CCN(C(=O)c3ccc(-c4cccc5[nH]nc(N)c45)cc3)CC2)c1 | > 100 | 9.6 | 49.2
5 | Nc1n[nH]c2cccc(-c3ccc(C(=O)N4CCN(C(=O)c5ccccc5Cl)CC4)cc3)c12 | 3.41 | 53.7 | 0.084
6 | Nc1n[nH]c2cccc(-c3ccc(C(=O)N4CCN(C(=O)c5ccccc5Br)CC4)cc3)c12 | 0.74 | 47.3 | 0.18
7 | Nc1n[nH]c2cccc(-c3ccc(C(=O)N4CCN(C(=O)c5cccc(C(F)(F)F)c5)CC4)cc3)c12 | 94.6 | 18.1 | 2.76
8 | Nc1n[nH]c2cccc(-c3ccc(C(=O)N4CCN(C(=O)c5ccc(F)c(F)c5)CC4)cc3)c12 | 83.5 | 21.5 | > 100
9 | COc1ccc(C(=O)N2CCN(C(=O)c3ccc(-c4cccc5[nH]nc(N)c45)cc3)CC2)cc1 | > 100 | 69.7 | > 100
10 | Cc1cccc(C(=O)N2CCN(C(=O)c3ccc(-c4cccc5[nH]nc(N)c45)cc3)CC2)c1 | > 100 | 21.8 | 2.37
11 | Nc1n[nH]c2cccc(-c3ccc(C(=O)N4CCN(C(=O)c5ccc(Cl)cc5)CC4)cc3)c12 | 65.6 | 10.5 | 1.89
12 | COc1ccccc1C(=O)N1CCN(C(=O)c2ccc(-c3cccc4[nH]nc(N)c34)cc2)CC1 | > 100 | 32.1 | 22.8
13 | Cc1ccccc1C(=O)N1CCN(C(=O)c2ccc(-c3cccc4[nH]nc(N)c34)cc2)CC1 | > 100 | 17.2 | 8.56
14 | Nc1n[nH]c2cccc(-c3ccc(C(=O)NCCNC(=O)c4ccc(F)c(F)c4)cc3)c12 | 75.3 | 28.4 | 14.3
15 | Nc1n[nH]c2cccc(-c3ccc(C(=O)NCCNC(=O)c4ccccc4Br)cc3)c12 | 1.04 | 13.1 | 0.031
16 | Cc1ccccc1C(=O)NCCNC(=O)c1ccc(-c2cccc3[nH]nc(N)c23)cc1 | 28.8 | 8 | 0.018
17 | Nc1n[nH]c2cccc(-c3ccc(C(=O)NCCNC(=O)c4cccc(C(F)(F)F)c4)cc3)c12 | 56.3 | 61.9 | 0.45
18 | Nc1n[nH]c2cccc(-c3ccc(C(=O)NCCNC(=O)c4cccc(F)c4)cc3)c12 | > 100 | 26.9 | –
19 | COc1ccccc1C(=O)NCCNC(=O)c1ccc(-c2cccc3[nH]nc(N)c23)cc1 | > 100 | 13.9 | 0.25
20 | COc1ccc(C(=O)NCCNC(=O)c2ccc(-c3cccc4[nH]nc(N)c34)cc2)cc1 | > 100 | 258 | > 100
21 | Cc1nc(Nc2ncc(C(=O)Nc3c(C)cccc3Cl)s2)cc(N2CCN(CCO)CC2)n1 [DASATINIB] | – | 0.45 | –
